# According to ChEMBL document CHEMBL3885861, “Open TG-GATES”:
# Species on record: Rattus norvegicus
# Assay: Open TG-GATES - Regimen: Daily Repeat
# Assay type: toxicity, organism-based, Sprague-Dawley
# Set-up: regimen Daily Repeat, gender Male, age 6 weeks
# Settings: in vivo, po, 2 mg/kg, route gavage, dose level Middle; for APTT / Bas / Eos / Fbg / Hb / Ht / Lym / MCH / MCHC / MCV / Mono / Neu / PT / Plat / RBC / Ret / WBC: tissue Blood; for KIDNEY_L / KIDNEY_R / KIDNEY_TOTAL: tissue Kidney; for LIVER: tissue Liver; for A/G / ALP / ALT / AST / BUN / CRE / Ca / Cl / DBIL / GLC / IP / K / LDH / Na / PL / RALB / TBIL / TC / TG / TP / gamma-GTP: tissue Plasma
structure (smiles),measurement,setting,value
O=NN(CCCl)C(=O)NC1CCCCC1 [LOMUSTINE],TERMINAL_BW,"72 h, time 3 day",220 g
same,APTT,"72 h, time 3 day",16.8 s
same,Bas,"72 h, time 3 day",0%
same,Eos,"72 h, time 3 day",0.8%
same,Fbg,"72 h, time 3 day",231.8 mg/dL
same,Hb,"72 h, time 3 day",13.3 g/dL
same,Ht,"72 h, time 3 day",39.9%
same,Lym,"72 h, time 3 day",82.4%
same,MCH,"72 h, time 3 day",21.1 pg
same,MCHC,"72 h, time 3 day",33.2%
same,MCV,"72 h, time 3 day",63.7 fL
same,Mono,"72 h, time 3 day",7.4%
same,Neu,"72 h, time 3 day",9.6%
same,PT,"72 h, time 3 day",11.7 s
same,Plat,"72 h, time 3 day",108 x10_4/uL
same,RBC,"72 h, time 3 day",628 x10_4/ul
same,Ret,"72 h, time 3 day",6.9%
same,WBC,"72 h, time 3 day",109.9 x10_2/uL
same,KIDNEY_L,"72 h, time 3 day",1 g
same,KIDNEY_R,"72 h, time 3 day",1 g
same,KIDNEY_TOTAL,"72 h, time 3 day",2 g
same,LIVER,"72 h, time 3 day",11.4 g
same,A/G,"72 h, time 3 day",2
same,ALP,"72 h, time 3 day",962.6 IU/L
same,ALT,"72 h, time 3 day",29.8 IU/L
same,AST,"72 h, time 3 day",59.4 IU/L
same,BUN,"72 h, time 3 day",17 mg/dL
same,CRE,"72 h, time 3 day",0.4 mg/dL
same,Ca,"72 h, time 3 day",11 mg/dL
same,Cl,"72 h, time 3 day",105.8 meq/L
same,DBIL,"72 h, time 3 day",0.01 mg/dL
same,GLC,"72 h, time 3 day",186.2 mg/dL
same,IP,"72 h, time 3 day",7.9 mg/dL
same,K,"72 h, time 3 day",4.7 meq/L
same,LDH,"72 h, time 3 day",84 IU/L
same,Na,"72 h, time 3 day",139.4 meq/L
same,PL,"72 h, time 3 day",152.8 mg/dL
same,RALB,"72 h, time 3 day",4 g/dL
same,TBIL,"72 h, time 3 day",0.4 mg/dL
same,TC,"72 h, time 3 day",83.2 mg/dL
same,TG,"72 h, time 3 day",100.8 mg/dL
same,TP,"72 h, time 3 day",5.9 g/dL
same,gamma-GTP,"72 h, time 3 day",1.4 IU/L
same,TERMINAL_BW,"[…], time 7 day",246.4 g
same,TERMINAL_BW,"[…], time 14 day",298.5 g
same,TERMINAL_BW,"[…], time 28 day",364.6 g
same,APTT,"[…], time 7 day",15.6 s
same,Bas,"[…], time 7 day",0%
same,Eos,"[…], time 7 day",1%
same,Fbg,"[…], time 7 day",246.8 mg/dL
same,Hb,"[…], time 7 day",13.9 g/dL
same,Ht,"[…], time 7 day",42%
same,Lym,"[…], time 7 day",80%
same,MCH,"[…], time 7 day",21 pg
same,MCHC,"[…], time 7 day",33.3%
same,MCV,"[…], time 7 day",63.2 fL
same,Mono,"[…], time 7 day",7.4%
same,Neu,"[…], time 7 day",11.6%
same,PT,"[…], time 7 day",11.4 s
same,Plat,"[…], time 7 day",98.8 x10_4/uL
same,RBC,"[…], time 7 day",664.2 x10_4/ul
same,Ret,"[…], time 7 day",5.1%
same,WBC,"[…], time 7 day",103.8 x10_2/uL
same,APTT,"[…], time 14 day",16.4 s
same,Bas,"[…], time 14 day",0%
same,Eos,"[…], time 14 day",0.6%
same,Fbg,"[…], time 14 day",228.4 mg/dL
same,Hb,"[…], time 14 day",14.3 g/dL
same,Ht,"[…], time 14 day",42.9%
same,Lym,"[…], time 14 day",81.8%
same,MCH,"[…], time 14 day",20.3 pg
same,MCHC,"[…], time 14 day",33.2%
same,MCV,"[…], time 14 day",61.2 fL
same,Mono,"[…], time 14 day",5.8%
same,Neu,"[…], time 14 day",11.8%
same,PT,"[…], time 14 day",11.4 s
same,Plat,"[…], time 14 day",129.2 x10_4/uL
same,RBC,"[…], time 14 day",701.8 x10_4/ul
same,Ret,"[…], time 14 day",4.3%
same,WBC,"[…], time 14 day",127.6 x10_2/uL
same,APTT,"[…], time 28 day",16 s
same,Bas,"[…], time 28 day",0%
same,Eos,"[…], time 28 day",1%
same,Fbg,"[…], time 28 day",230.4 mg/dL
same,Hb,"[…], time 28 day",14.9 g/dL
same,Ht,"[…], time 28 day",44.4%
same,Lym,"[…], time 28 day",80%
same,MCH,"[…], time 28 day",19 pg
same,MCHC,"[…], time 28 day",33.5%
same,MCV,"[…], time 28 day",56.9 fL
same,Mono,"[…], time 28 day",7.6%
same,Neu,"[…], time 28 day",11.6%
same,PT,"[…], time 28 day",11.3 s
same,Plat,"[…], time 28 day",113.9 x10_4/uL
same,RBC,"[…], time 28 day",780.6 x10_4/ul
same,Ret,"[…], time 28 day",2.5%
same,WBC,"[…], time 28 day",145.6 x10_2/uL
same,KIDNEY_L,"[…], time 7 day",1 g
same,KIDNEY_R,"[…], time 7 day",1 g
same,KIDNEY_TOTAL,"[…], time 7 day",2 g
same,KIDNEY_L,"[…], time 14 day",1.2 g
same,KIDNEY_R,"[…], time 14 day",1.2 g
same,KIDNEY_TOTAL,"[…], time 14 day",2.5 g
same,KIDNEY_L,"[…], time 28 day",1.4 g
same,KIDNEY_R,"[…], time 28 day",1.4 g
same,KIDNEY_TOTAL,"[…], time 28 day",2.7 g
same,LIVER,"[…], time 7 day",13 g
same,LIVER,"[…], time 14 day",14.1 g
same,LIVER,"[…], time 28 day",16.6 g
same,A/G,"[…], time 7 day",1.7
same,ALP,"[…], time 7 day",976.4 IU/L
same,ALT,"[…], time 7 day",47.2 IU/L
same,AST,"[…], time 7 day",85.8 IU/L
same,BUN,"[…], time 7 day",19.6 mg/dL
same,CRE,"[…], time 7 day",0.4 mg/dL
same,Ca,"[…], time 7 day",11.2 mg/dL
same,Cl,"[…], time 7 day",105.8 meq/L
same,DBIL,"[…], time 7 day",0.016 mg/dL
same,GLC,"[…], time 7 day",181.8 mg/dL
same,IP,"[…], time 7 day",7.7 mg/dL
same,K,"[…], time 7 day",4.6 meq/L
same,LDH,"[…], time 7 day",87 IU/L
same,Na,"[…], time 7 day",139.8 meq/L
same,PL,"[…], time 7 day",169.6 mg/dL
same,RALB,"[…], time 7 day",3.8 g/dL
same,TBIL,"[…], time 7 day",0.3 mg/dL
same,TC,"[…], time 7 day",98.8 mg/dL
same,TG,"[…], time 7 day",95.6 mg/dL
same,TP,"[…], time 7 day",6.1 g/dL
same,gamma-GTP,"[…], time 7 day",2.2 IU/L
same,A/G,"[…], time 14 day",2.1
same,ALP,"[…], time 14 day",822.6 IU/L
same,ALT,"[…], time 14 day",36.2 IU/L
same,AST,"[…], time 14 day",66.8 IU/L
same,BUN,"[…], time 14 day",17.4 mg/dL
same,CRE,"[…], time 14 day",0.5 mg/dL
same,Ca,"[…], time 14 day",11.4 mg/dL
same,Cl,"[…], time 14 day",106.4 meq/L
same,DBIL,"[…], time 14 day",0.032 mg/dL
same,GLC,"[…], time 14 day",183.8 mg/dL
same,IP,"[…], time 14 day",7.3 mg/dL
same,K,"[…], time 14 day",4.6 meq/L
same,LDH,"[…], time 14 day",94.8 IU/L
same,Na,"[…], time 14 day",140.2 meq/L
same,PL,"[…], time 14 day",166 mg/dL
same,RALB,"[…], time 14 day",4.1 g/dL
same,TBIL,"[…], time 14 day",0.3 mg/dL
same,TC,"[…], time 14 day",77.2 mg/dL
same,TG,"[…], time 14 day",136 mg/dL
same,TP,"[…], time 14 day",6.1 g/dL
same,gamma-GTP,"[…], time 14 day",2.4 IU/L
same,A/G,"[…], time 28 day",1.7
same,ALP,"[…], time 28 day",637.8 IU/L
same,ALT,"[…], time 28 day",61.4 IU/L
same,AST,"[…], time 28 day",115.8 IU/L
same,BUN,"[…], time 28 day",19.6 mg/dL
same,CRE,"[…], time 28 day",0.4 mg/dL
same,Ca,"[…], time 28 day",11.1 mg/dL
same,Cl,"[…], time 28 day",106.8 meq/L
same,DBIL,"[…], time 28 day",0.054 mg/dL
same,GLC,"[…], time 28 day",186.6 mg/dL
same,IP,"[…], time 28 day",6.3 mg/dL
same,K,"[…], time 28 day",4.5 meq/L
same,LDH,"[…], time 28 day",163 IU/L
same,Na,"[…], time 28 day",139.8 meq/L
same,PL,"[…], time 28 day",192.4 mg/dL
same,RALB,"[…], time 28 day",4.1 g/dL
same,TBIL,"[…], time 28 day",0.3 mg/dL
same,TC,"[…], time 28 day",106.6 mg/dL
same,TG,"[…], time 28 day",85.4 mg/dL
same,TP,"[…], time 28 day",6.5 g/dL
same,gamma-GTP,"[…], time 28 day",3.6 IU/L
